Test results as given in PubChem BioAssay (NCI).
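How tested: cells in 96-well plates exposed to compound for 48 hours at five concentrations. At the GI50, growth is halved. TGI: concentration producing complete growth inhibition.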

Key:
Assay in all cases: growth of human tumour cells (NCI), 48 h
[1] = test system: MCF7 breast
[2] = test system: SNB-78 CNS
[3] = test system: HCC-2998 colon
[4] = test system: DMS 273 small cell lung
[5] = test system: NCI/ADR-RES ovarian
[6] = test system: KM20L2 colon
[7] = test system: HS 578T breast
[8] = test system: MDA-MB-231 breast
[9] = test system: MDA-MB-435
[10] = test system: DU-145 prostate
[11] = test system: RXF-631 renal
[12] = test system: LXFL 529 NSCLC

O=C(O)C1CCC(=O)N1S(=O)(=O)c1ccccc1 (stereo not given)
TGI [1]: > 100 µM | TGI [2]: > 100 µM | TGI [3]: > 100 µM | TGI [4]: > 100 µM | TGI [5]: > 100 µM | TGI [6]: > 100 µM

CC(=O)C=NCC(=O)O
TGI [7]: > 100 µM | TGI [8]: > 100 µM | TGI [9]: > 100 µM | TGI [1]: > 100 µM | TGI [10]: > 100 µM | TGI [5]: > 100 µM

CC(=O)OCC1=C(C(=O)O)C(c2ccc3c(c2)OCO3)c2cc3c(cc2O1)OCO3 (stereo not given)
TGI [11]: > 100 µM | TGI [2]: > 100 µM | TGI [4]: > 100 µM | TGI [6]: > 100 µM

O=C(Nc1c(C(=O)NC2CCCCC2)[nH]c(=O)[nH]c1=O)c1ccc(Cl)cc1
TGI [12]: > 100 µM

CCCC(N)C(=O)c1ccccc1 (stereo not given)
TGI [2]: > 100 µM | TGI [3]: > 100 µM | TGI [4]: > 100 µM | TGI [6]: > 100 µM | TGI [12]: > 100 µM

COc1ccc(-c2nn(-c3cccc(NC(=O)Nc4ccccc4)c3)cc2-c2ccncc2)cc1Cl
GI50 [7]: 2.46 µM | TGI [7]: 7.94 µM | GI50 [8]: 2.53 µM | TGI [8]: 8.01 µM | GI50 [9]: 2.03 µM | TGI [9]: 5.25 µM | GI50 [1]: 2.07 µM | TGI [1]: 4.91 µM | GI50 [10]: 2.47 µM | TGI [10]: 5.87 µM | GI50 [5]: 2.81 µM | TGI [5]: 8.26 µM

c1ccc(N=c2nc(N3CCOCC3)ss2)cc1
TGI [11]: 31.7 µM | TGI [2]: 51.3 µM | TGI [3]: 45.1 µM | TGI [4]: 31.4 µM | TGI [6]: 31.4 µM | TGI [12]: 24.6 µM

Fc1ccc(-c2nn3c(-c4cc(C(F)(F)F)cc(C(F)(F)F)c4)nnc3s2)cc1
GI50 [7]: 1.76 µM | TGI [7]: > 50 µM | GI50 [8]: 1.79 µM | TGI [8]: > 50 µM | GI50 [9]: > 50 µM | TGI [9]: > 50 µM | GI50 [1]: > 50 µM | TGI [1]: > 50 µM | GI50 [3]: > 50 µM | TGI [3]: > 50 µM | GI50 [10]: > 50 µM | TGI [10]: > 50 µM | GI50 [5]: 2.95 µM | TGI [5]: > 50 µM

CC(=O)O[C@H]1C=CC(=O)C(C)CC1C (stereo not given in full)
TGI [11]: > 100 µM | TGI [2]: > 100 µM | TGI [3]: > 100 µM | TGI [4]: > 100 µM | TGI [6]: > 100 µM | TGI [12]: > 100 µM

Clc1ccc(CNc2nc(Cl)c3[nH]cnc3n2)cc1Cl
TGI [7]: 50.8 µM | TGI [8]: > 100 µM | TGI [9]: > 100 µM | TGI [1]: 84.5 µM | TGI [3]: 53.2 µM | TGI [10]: > 100 µM | TGI [5]: 69.6 µM

N#CC(Nc1cccc(C(F)(F)F)c1)c1ccccc1C(F)(F)F (stereo not given)
TGI [2]: 43 µM | TGI [3]: 18.6 µM | TGI [4]: 21.1 µM | TGI [6]: 28.4 µM | TGI [12]: 15.7 µM

CCOc1ccc(/C(C=O)=C(\Cl)c2ccc(OC)c(OC)c2)cc1
TGI [11]: > 100 µM | TGI [2]: > 100 µM | TGI [4]: > 100 µM | TGI [6]: > 100 µM | TGI [12]: > 100 µM

CCC(=O)NC(Nc1cccc(F)c1)(C(F)(F)F)C(F)(F)F
TGI [7]: > 100 µM | TGI [8]: > 100 µM | TGI [9]: > 100 µM | TGI [1]: > 100 µM | TGI [3]: > 100 µM | TGI [10]: > 100 µM | TGI [5]: > 100 µM

O=C(Nc1ccc(Sc2ccc(N=Nc3c(O)c(S(=O)(=O)O)cc4cc(S(=O)(=O)O)ccc34)cc2)cc1)c1ccc(N=Nc2c(O)ccc3c(S(=O)(=O)O)cc(S(=O)(=O)O)cc23)cc1
TGI [11]: > 100 µM | TGI [2]: > 100 µM | TGI [3]: > 100 µM | TGI [4]: > 100 µM | TGI [6]: > 100 µM | TGI [12]: > 100 µM

Cc1cc2c(C(C)C)c(O)c(O)c(C=NCCO)c2c(O)c1-c1c(C)cc2c(C(C)C)c(O)c(O)c(C=NCCO)c2c1O
TGI [11]: 5.35 µM | TGI [2]: 34.1 µM | TGI [3]: 8.25 µM | TGI [4]: 3.16 µM | TGI [12]: 3.05 µM

NC1(C(=O)O)CCc2ccc(N(CCCl)CCCl)cc2C1 (stereo not given)
TGI [1]: > 100 µM | TGI [3]: > 100 µM | TGI [4]: > 100 µM | TGI [5]: > 100 µM | TGI [6]: > 100 µM
